Values joined by “and” are separate entries in the source; they are usually repeats but may differ in a detail not shown here. Equal entries are not always repeated.
Experiments:
[1] = test system: Ac-histone H3 (class I HDACs); experiment: Immunoblot analysis of MV-3 cell lysates incl. wash out; format: cell-based, human; conditions: for histone H3 acetylation after wash out (immunoblot): MV-3, 5 μM for 48 h, then up to 6 h without inhibitor; for acetylation level of histone H3 (immunoblot): MV-3, 5 μM, 24–72 h, substantial increase after 72 h
Procedure: The impact on the acetylation levels of the HDAC substrates Ac-histone H3 (class I HDACs) and Ac-α-tubulin (HDAC6) was analyzed by immunoblot analysis.
6 Immunoblot analysis of MV-3 cell lysates. […] Representative images from at least three replicates are shown. DMSO (0.025%) was used as vehicle control and GAPDH as loading control.
After that, cells were treated with a concentration of 5 μM of HDAC inhibitor or vehicle (DMSO) for additional 24 h, 48 h or 72 h. For cell lysis the cells were initially washed with PBS and detached using a scraper. The cells were then centrifuged at 1200 rpm for 4 min at 4 °C, followed by two additional washing steps. After that, the cell pellet was resuspended in 100 μL of freshly prepared lysis buffer and incubated on ice for 30 min with vortexing every 10 min. The lysis buffer consisted of Invitrogen cell extraction buffer (10 mM Tris, pH 7.4, 100 mM NaCl, […], […], 1 mM NaF, 20 mM Na4P2O7, 2 mM Na3VO4, 1% Triton × −100, 10% glycerol, 0.1% SDS, 0.5% deoxycholate; Catalog# FNN0011, Thermo Fisher Scientific Inc., Waltham, MA, USA), supplemented with 0.1 mM PMSF (Catalog# 10837091001, Sigma-Aldrich, St. Louis, MO, USA) and Halt Protease Inhibitor (100×) (Catalog# 78429, Life Technologies GmbH Carlsbad, CA, USA). Finally, the samples were centrifuged at 14,000 rpm and 4 °C for 30 min and the supernatant was collected. Protein quantification was performed by using BCA protein assay reagents (Catalog# 23225, Thermo Fisher Scientific Inc., Waltham, MA, USA). Lysates were mixed with Laemmli sample buffer 2× concentrate (Catalog# S3401-10VL, Sigma-Aldrich, St. Louis, MO, USA) to a protein concentration of 1.25 μg/μL and denatured at 95 °C for 5 min. Subsequently, SDS-PAGE was performed with 2–20% Mini-PROTEAN TGX stain-free gels (Catalog# 456809, Bio-Rad, Hercules, CA, USA) at 200 V for 45 min. Proteins were then transferred to a Trans-Blot Turbo-PVDF membrane (Catalog# 1704156, Bio-Rad, Hercules, CA, USA) with the Trans-Blot Turbo Transfer System (Catalog# 1704150, Bio-Rad, Hercules, CA, USA) at 25 V for 5 min. The membrane was blocked with a solution of 5% milk powder in TBST (Tris-buffered saline-Tween 20 0.2%) for 60 min at room temperature. After three washing cycles for 10 min with TBST, the membrane was incubated with the respective antibody and a mouse anti-GAPDH antibody (Catalog# T0004, Affinity Biosciences, Cincinnati, OH, USA; 1:20,000 dilution) at room temperature for 60 min and 4 °C overnight. […] After washing off the secondary antibody, protein bands were detected via chemiluminescence using Clarity Western ECL substrate (Catalog# 1705061, Bio-Rad, Hercules, CA, USA). […]

HDAC2 [2] = conditions: literature value for Cpd-60; ref number not given; cited from earlier work
HDAC3 = test system: HDAC3; set-up: method as in earlier work; conditions: Figure 1 and b11; ref 'Data taken from refs' (numbers not given); cited from earlier work
HDAC6 = test system: HDAC6; set-up: method as in earlier work; conditions: Figure 1; ref 'Data taken from refs' (numbers not given); cited from earlier work
HDAC4–8 = test system: HDAC4–8; set-up: method as in number not given; conditions: literature value for Cpd-60; ref number not given; cited from earlier work
MDA-MB-231 cells = experiment: Annexin V/PI apoptosis assay; conditions: MDA-MB-231, 10 μM, 48 h
HDAC1 [3] = biological target: T1, HDAC1 (Homo sapiens, UniProt Q13547); experiment: 100-fold jump-dilution experiments; conditions: 1 h incubation at 5-fold IC50, then 1:100 dilution
T1 sequence (Q13547 whole entry): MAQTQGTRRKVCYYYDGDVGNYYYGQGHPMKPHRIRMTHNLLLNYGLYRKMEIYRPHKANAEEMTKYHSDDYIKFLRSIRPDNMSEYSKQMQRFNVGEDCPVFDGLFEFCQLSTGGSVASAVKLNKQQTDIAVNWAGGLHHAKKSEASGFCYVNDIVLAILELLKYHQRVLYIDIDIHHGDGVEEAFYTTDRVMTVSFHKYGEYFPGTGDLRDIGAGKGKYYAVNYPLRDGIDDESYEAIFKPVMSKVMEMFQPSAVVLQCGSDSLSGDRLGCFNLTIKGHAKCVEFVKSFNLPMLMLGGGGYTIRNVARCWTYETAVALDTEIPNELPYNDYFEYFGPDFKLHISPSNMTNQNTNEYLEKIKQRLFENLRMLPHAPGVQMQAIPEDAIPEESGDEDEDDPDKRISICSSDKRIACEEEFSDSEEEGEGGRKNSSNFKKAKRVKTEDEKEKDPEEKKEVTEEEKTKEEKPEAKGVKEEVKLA

HDAC1 [4] = biological target: T1, HDAC1; experiment: IC50-shift (preincubation time) experiments
HDAC1 [5] = biological target: T1, HDAC1; experiment: Fluorescence-based biochemical HDAC enzyme inhibition assay (ZMAL substrate); conditions: HDAC1 IC50, preincubation of enzyme and inhibitor 1 h at RT; no irradiation
HDAC2 [6] = biological target: HDAC2 (Homo sapiens, UniProt Q92769); experiment: as above; conditions: HDAC2 IC50, preincubation of enzyme and inhibitor 1 h at RT; no irradiation
Chain of HDAC2 (Homo sapiens, UniProt Q92769) (Q92769 whole entry): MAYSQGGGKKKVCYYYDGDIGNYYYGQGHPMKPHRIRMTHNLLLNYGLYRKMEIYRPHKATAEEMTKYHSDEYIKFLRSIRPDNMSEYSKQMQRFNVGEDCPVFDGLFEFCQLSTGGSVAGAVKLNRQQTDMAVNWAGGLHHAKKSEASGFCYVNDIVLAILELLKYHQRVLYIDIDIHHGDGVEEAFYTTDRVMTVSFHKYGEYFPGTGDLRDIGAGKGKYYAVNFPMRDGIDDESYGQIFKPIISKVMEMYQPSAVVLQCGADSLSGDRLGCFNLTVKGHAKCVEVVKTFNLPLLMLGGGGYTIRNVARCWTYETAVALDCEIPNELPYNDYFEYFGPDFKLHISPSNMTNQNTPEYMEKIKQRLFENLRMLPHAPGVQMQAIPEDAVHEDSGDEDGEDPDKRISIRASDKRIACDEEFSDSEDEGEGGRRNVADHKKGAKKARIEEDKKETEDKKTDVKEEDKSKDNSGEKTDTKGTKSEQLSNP

human recombinant HDAC3 = human recombinant HDAC3 (Homo sapiens, UniProt O15379); experiment: as above; conditions: HDAC3 IC50, preincubation of enzyme and inhibitor 1 h at RT; no irradiation
Chain of human recombinant HDAC3 (O15379 whole entry): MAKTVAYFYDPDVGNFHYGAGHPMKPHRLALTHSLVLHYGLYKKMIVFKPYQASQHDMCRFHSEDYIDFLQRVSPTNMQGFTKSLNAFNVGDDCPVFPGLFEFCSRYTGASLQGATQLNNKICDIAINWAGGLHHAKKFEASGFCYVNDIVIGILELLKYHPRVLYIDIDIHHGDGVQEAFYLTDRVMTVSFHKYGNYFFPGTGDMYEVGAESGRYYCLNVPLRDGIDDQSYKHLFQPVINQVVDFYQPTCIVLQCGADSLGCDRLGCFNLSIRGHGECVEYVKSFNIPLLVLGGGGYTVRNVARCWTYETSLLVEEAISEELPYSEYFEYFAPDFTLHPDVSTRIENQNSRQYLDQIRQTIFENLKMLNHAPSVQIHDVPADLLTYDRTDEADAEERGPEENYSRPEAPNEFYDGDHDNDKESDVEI
Chain of human recombinant HDAC3 (Q9Y618 395-489 partner limits assumed): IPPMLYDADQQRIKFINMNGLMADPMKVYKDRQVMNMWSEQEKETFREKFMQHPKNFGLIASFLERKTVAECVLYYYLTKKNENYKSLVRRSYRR

Row | SMILES | histone H3 acetylation after wash out (immunoblot) [1] | acetylation level of histone H3 (immunoblot) [1] | IC50 (HDAC2 [2]) | IC50 (HDAC3) | IC50 (HDAC6) | IC50 (HDAC4–8) | apoptosis induction (annexin V/PI) (MDA-MB-231 cells) | dissociation behavior from HDAC1 upon 100-fold dilution (HDAC1 [3]) | IC50 (HDAC1 [4]; HDAC1 IC50, preincubation time 5 min) | IC50 (HDAC1 [4]; HDAC1 IC50, preincubation time 30 min) | IC50 (HDAC1 [4]; HDAC1 IC50, preincubation time 60 min) | IC50 (HDAC1 [4]; HDAC1 IC50, preincubation time 120 min) | IC50 (HDAC1 [5]) | IC50 (HDAC2 [6]) | IC50 (human recombinant HDAC3)
1 | CC(=O)Nc1ccc(C(=O)Nc2cc(-c3cccs3)ccc2N)cc1 [Cpd-60, reference compound] | persistent histone H3 acetylation | hyperacetylation of histone H3 | 0.049 µM | […] | […] | […] | significantly induced apoptosis | – | – | – | – | – | – | – | –
2 | CC(=O)Nc1ccc(C(=O)Nc2cc(-c3ccccc3)ccc2O)cc1 [ST13, 4-Acetamido-N-(4-hydroxy-[1,1′-biphenyl]-3-yl)-benzamide] | persistent histone H3 acetylation | hyperacetylation of histone H3 | – | – | – | – | significantly induced apoptosis | tight-binding properties | 0.055 ± 0.007 µM | 0.036 ± 0.004 µM | 0.034 ± 0.005 µM | 0.025 ± 0.003 µM | 0.023 ± 0.004 µM | 0.049 ± 0.003 µM | 4.3 µM and 6.64 µM

— publication PMC12706802, “Ortho-Hydroxyanilides: Slow-Acting, Selective Histone Deacetylase 1/2 Inhibitors Suitable for Photocaging Applications” (ACS Pharmacology & Translational Science, 2025)
